Source: patent US12552767B2, “3-heteroaryl pyrrolidine and piperidine orexin receptor agonists” (Merck Sharp & Dohme LLC, priority 2020, dated 2026)

Target: T1, human OX2R (Homo sapiens, UniProt O43614)
T1 construct: expressed in transfected cells; host or cells: CHO (Chinese hamster ovary) cells, grown under G418 selection
T1 sequence (O43614 1-444): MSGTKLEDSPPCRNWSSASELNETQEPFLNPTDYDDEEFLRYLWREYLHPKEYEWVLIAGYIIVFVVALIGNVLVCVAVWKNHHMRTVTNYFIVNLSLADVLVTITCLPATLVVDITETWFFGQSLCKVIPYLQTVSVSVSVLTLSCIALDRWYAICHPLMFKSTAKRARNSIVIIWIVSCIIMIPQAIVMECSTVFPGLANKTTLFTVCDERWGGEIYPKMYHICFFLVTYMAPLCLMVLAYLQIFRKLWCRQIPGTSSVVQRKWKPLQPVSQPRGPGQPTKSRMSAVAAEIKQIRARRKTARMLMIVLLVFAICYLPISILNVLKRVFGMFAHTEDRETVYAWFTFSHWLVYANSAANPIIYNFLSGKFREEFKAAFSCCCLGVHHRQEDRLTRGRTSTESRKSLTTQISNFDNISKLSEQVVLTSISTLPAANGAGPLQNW
Test: IP-One (IPOne) orexin receptor agonist assay in CHO cells expressing human OX2R
Assay type: cell-based
Settings: for EC50: CHO cells expressing human OX2R, IP-One IP-1 detection, 2 hours incubation, four parameter logistic fit, read-out: OX2R Potency, EC50; for % of reference agonist maximal effect: human OX2R, percentage of sample raw value/mean max effect (reference compound at 1 uM with 100% activity)
Method in brief: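 CHO cells stably expressing human OX2R were stimulated with compound (10-point ½-log dilutions) for 2 h at 37 °C. IP-1 accumulation was read by HTRF (IP-One, 665/620 nm). EC50 from a four-parameter fit; % effect relative to 1 μM reference agonist control.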

**Q.** Which results are given for `CO[C@@H](C)COC(=O)N1CCC[C@H](c2cc[nH]n2)[C@@H]1CO[C@H]1CC[C@@H](c2ccccc2)CC1` [Example 119, (S)-2-methoxypropyl (CIS)-2-((((CIS)-4-phenylcyclohexyl)oxy)methyl)-3-(1H-pyrazol-3-yl)piperidine-1-carboxylate]?
**A.** EC50: 9.69 µM; % of reference agonist maximal effect: 50.6%

**Q.** For `COC(=O)N1CCC[C@@H](c2n[nH]cc2Cl)[C@H]1CO[C@H]1CC[C@@H](c2ccccc2)CC1` (single isomer, unassigned) [Example 46], which EC50 is on record?
**A.** The EC50 was > 10 µM.

**Q.** What about the “% of reference agonist maximal effect” value of the same compound?
**A.** The value was 0%.

**Q.** What does the source list for `O=C(C1CC1)N1CCC[C@H](c2cc[nH]n2)[C@@H]1CO[C@H]1CC[C@@H](c2ccccc2)CC1` (single isomer, unassigned) [Example 20, cyclopropyl((CIS)-2-((((CIS)-4-phenylcyclohexyl)oxy)methyl)-3-(1H-pyrazol-3-yl)piperidin-1-yl)methanone]?
**A.** EC50: 0.682 µM; % of reference agonist maximal effect: 97.4%

**Q.** With `COC(=O)N1CCC[C@H](c2nc(O)ccc2C)[C@@H]1CO[C@H]1CC[C@@H](c2ccccc2)CC1` (relative stereo) [Example 66, methyl (CIS)-3-(6-hydroxy-3-methylpyridin-2-yl)-2-((((CIS)-4-phenylcyclohexyl)oxy)methyl)piperidine-1-carboxylate] as the compound, how does the EC50 read?
**A.** The EC50 was 0.808 µM.

**Q.** What about the “% of reference agonist maximal effect” value of the same compound?
**A.** Its value is 98.8%.

**Q.** Which results are given for `O=C(N1CCC[C@H](c2cc[nH]n2)[C@@H]1CO[C@H]1CC[C@@H](c2ccccc2)CC1)C1(O)CC1` (relative stereo) [Example 78, (1-hydroxycyclopropyl)((CIS)-2-((((CIS)-4-phenylcyclohexyl)oxy)methyl)-3-(1H-pyrazol-3-yl)piperidin-1-yl)methanone]?
**A.** EC50: 4.43 µM; % of reference agonist maximal effect: 92.6%

**Q.** `COC(=O)N1CCC[C@H](c2nc(O)sc2C)[C@@H]1CO[C@H]1CC[C@@H](c2ccccc2)CC1` (relative stereo) [Example 2, Methyl (CIS)-3-(2-hydroxy-5-methylthiazol-4-yl)-2-((((CIS)-4-phenylcyclohexyl)oxy)-methyl)piperidine-1-carboxylate] was tested. Which EC50 did it give?
**A.** Its EC50 is 0.0151 µM.

**Q.** What about the “% of reference agonist maximal effect” value of the same compound?
**A.** Its value is 101.9%.

**Q.** For `COC(=O)N1CCC[C@H](c2n[nH]cc2C)[C@@H]1COC1CCN(c2ccccc2)CC1` (relative stereo) [Example 8, Methyl (CIS)-3-(4-methyl-1H-pyrazol-3-yl)-2-(((1-phenylpiperidin-4-yl)oxy)methyl)piperidine-1-carboxylate], which EC50 is on record?
**A.** The EC50 was 5.84 µM.

**Q.** What about the “% of reference agonist maximal effect” value of the same compound?
**A.** Its value is 80.9%.

**Q.** Which results are given for `O=C(Oc1cccnc1)N1CCC[C@H](c2cc[nH]n2)[C@@H]1CO[C@H]1CC[C@@H](c2ccccc2)CC1` (relative stereo) [Example 101, pyridin-3-yl (CIS)-2-((((CIS)-4-phenylcyclohexyl)oxy)methyl)-3-(1H-pyrazol-3-yl)piperidine-1-carboxylate]?
**A.** EC50: 2.51 µM; % of reference agonist maximal effect: 77.7%

**Q.** With `C#C[C@H](C)OC(=O)N1CCC[C@H](c2cc[nH]n2)[C@@H]1CO[C@H]1CC[C@@H](c2ccccc2)CC1` [Example 115, (S)-but-3-yn-2-yl (CIS)-2-((((CIS)-4-phenylcyclohexyl)oxy)methyl)-3-(1H-pyrazol-3-yl)piperidine-1-carboxylate] as the compound, how does the EC50 read?
**A.** Its EC50 is 7.47 µM.

**Q.** What about the “% of reference agonist maximal effect” value of the same compound?
**A.** Its value is 51.4%.

**Q.** With `CC(OC(=O)N1CCC[C@H](c2cc[nH]n2)[C@@H]1CO[C@H]1CC[C@@H](c2ccccc2)CC1)C(F)F` (relative stereo) [Example 99, 1,1-difluoropropan-2-yl (CIS)-2-((((CIS)-4-phenylcyclohexyl)oxy)methyl)-3-(1H-pyrazol-3-yl)piperidine-1-carboxylate] as the compound, how does the EC50 read?
**A.** The EC50 was 1.82 µM.

**Q.** What about the “% of reference agonist maximal effect” value of the same compound?
**A.** The value was 88.9%.

**Q.** With `COC(=O)N1CCC[C@H](c2n[nH]cc2C)[C@@H]1COC1CC=C(c2cccc(F)c2)CC1` (stereo partly drawn) [Example 13, methyl (CIS)-2-((((S)-3′-fluoro-2,3,4,5-tetrahydro-[1,1′-biphenyl]-4-yl)oxy)methyl)-3-(4-methyl-1H-pyrazol-3-yl)piperidine-1-carboxylate] as the compound, how does the EC50 read?
**A.** Its EC50 is 4.75 µM.

**Q.** And the “% of reference agonist maximal effect” value?
**A.** Its value is 84.6%.

**Q.** Which EC50 does the source give for `O=C(C1CC1)N1CCC[C@H](c2cc[nH]n2)[C@@H]1CO[C@H]1CC[C@@H](c2ccccc2)CC1` (single isomer, unassigned) [Example 71, cyclopropyl((CIS)-2-((((CIS)-4-phenylcyclohexyl)oxy)methyl)-3-(1H-pyrazol-3-yl)piperidin-1-yl)methanone] here?
**A.** Its EC50 is 0.457 µM.

**Q.** What about the “% of reference agonist maximal effect” value of the same compound?
**A.** Its value is 82.9%.

**Q.** Which EC50 does the source give for `COC(=O)N1CCC[C@H](c2n[nH]cc2C#N)[C@@H]1CO[C@H]1CC[C@@H](c2ccccc2)CC1` (single isomer, unassigned) [Example 51] here?
**A.** The EC50 was 0.227 µM.

**Q.** What about the “% of reference agonist maximal effect” value of the same compound?
**A.** The value was 99.0%.

**Q.** How did the EC50 turn out when `CC(C)[C@H]1CC[C@@H](OC[C@H]2[C@@H](c3cc[nH]n3)CCCN2C(=O)C2CC2(C)C)CC1` (relative stereo) [Example 81, (2,2-dimethylcyclopropyl)((CIS)-2-((((CIS)-4-isopropylcyclohexyl)oxy)methyl)-3-(1H-pyrazol-3-yl)piperidin-1-yl)methanone] was run?
**A.** Its EC50 is 5.65 µM.

**Q.** And the “% of reference agonist maximal effect” value?
**A.** The value was 70.0%.

**Q.** Which results are given for `C=CCC(=O)N1CCC[C@H](c2cc[nH]n2)[C@@H]1CO[C@H]1CC[C@@H](C(C)C)CC1` (relative stereo) [Example 84, 1-((CIS)-2-((((CIS)-4-isopropylcyclohexyl)oxy)methyl)-3-(1H-pyrazol-3-yl)piperidin-1-yl)but-3-en-1-one]?
**A.** EC50: 7.14 µM; % of reference agonist maximal effect: 71.1%

**Q.** With `CC1CC1C(=O)N1CCC[C@H](c2cc[nH]n2)[C@@H]1CO[C@H]1CC[C@@H](C(C)C)CC1` (relative stereo) [Example 76, ((CIS)-2-((((CIS)-4-isopropylcyclohexyl)oxy)methyl)-3-(1H-pyrazol-3-yl)piperidin-1-yl)(2-methylcyclopropyl)methanone] as the compound, how does the EC50 read?
**A.** The EC50 was 4.13 µM.

**Q.** And the “% of reference agonist maximal effect” value?
**A.** The value was 94.6%.

**Q.** What does the source list for `COC(=O)N1CCC[C@H](c2ncn[nH]2)[C@@H]1CO[C@H]1CC[C@@H](c2ccccc2)CC1` (relative stereo) [Example 26, methyl (CIS)-2-((((CIS)-4-phenylcyclohexyl)oxy)methyl)-3-(1H-1,2,4-triazol-5-yl)piperidine-1-carboxylate]?
**A.** EC50: 2.43 µM; % of reference agonist maximal effect: 83.6%

**Q.** Which EC50 does the source give for `Cc1c[nH]nc1[C@H]1CCCN(C(=O)OCC(F)F)[C@H]1CO[C@H]1CC[C@@H](c2cccc(F)c2)CC1` (relative stereo) [Example 16, 2,2-difluoroethyl (CIS)-2-((((CIS)-4-(3-fluorophenyl)cyclohexyl)oxy)methyl)-3-(4-methyl-1H-pyrazol-3-yl)piperidine-1-carboxylate] here?
**A.** The EC50 was 0.126 µM.

**Q.** And the “% of reference agonist maximal effect” value?
**A.** Its value is 99.9%.

**Q.** Which EC50 does the source give for `CC(C)[C@H]1CC[C@@H](OC[C@H]2[C@@H](c3cc[nH]n3)CCCN2C(=O)C2CCCC2)CC1` (relative stereo) [Example 83, cyclopentyl((CIS)-2-((((CIS)-4-isopropylcyclohexyl)oxy)methyl)-3-(1H-pyrazol-3-yl)piperidin-1-yl)methanone] here?
**A.** Its EC50 is 7.08 µM.

**Q.** And the “% of reference agonist maximal effect” value?
**A.** Its value is 73.9%.

**Q.** With `CCNC(=O)N1CCC[C@H](c2n[nH]cc2C)[C@@H]1CO[C@H]1CC[C@@H](c2cccc(F)c2)CC1` (single isomer, unassigned) [Example 11] as the compound, how does the EC50 read?
**A.** The EC50 was 0.0023 µM.

**Q.** And the “% of reference agonist maximal effect” value?
**A.** The value was 100.1%.

**Q.** Which results are given for `CCNC(=O)N1CCC[C@H](c2ccn[nH]2)[C@@H]1COC1CCC(C(C)C)CC1` (relative stereo) [Example 3, (CIS)-N-ethyl-2-(((4-isopropylcyclohexyl)oxy)methyl)-3-(1H-pyrazol-5-yl)piperidine-1-carboxamide]?
**A.** EC50: 0.676 µM; % of reference agonist maximal effect: 99.9%

**Q.** What does the source list for `CC[C@@H](C)OC(=O)N1CCC[C@H](c2cc[nH]n2)[C@@H]1CO[C@H]1CC[C@@H](c2ccccc2)CC1` [Example 108, (R)-sec-butyl (CIS)-2-((((CIS)-4-phenylcyclohexyl)oxy)methyl)-3-(1H-pyrazol-3-yl)piperidine-1-carboxylate]?
**A.** EC50: 5.27 µM; % of reference agonist maximal effect: 60.7%

**Q.** With `O=C(OCC(F)F)N1CCC[C@H](c2cc[nH]n2)[C@@H]1CO[C@H]1CC[C@@H](c2ccccc2)CC1` (relative stereo) [Example 96, 2,2-difluoroethyl (CIS)-2-((((CIS)-4-phenylcyclohexyl)oxy)methyl)-3-(1H-pyrazol-3-yl)piperidine-1-carboxylate] as the compound, how does the EC50 read?
**A.** The EC50 was 0.754 µM.

**Q.** What about the “% of reference agonist maximal effect” value of the same compound?
**A.** Its value is 91.3%.

**Q.** What does the source list for `COCCCOC(=O)N1CCC[C@H](c2cc[nH]n2)[C@@H]1CO[C@H]1CC[C@@H](c2ccccc2)CC1` (relative stereo) [Example 118, 3-methoxypropyl (CIS)-2-((((CIS)-4-phenylcyclohexyl)oxy)methyl)-3-(1H-pyrazol-3-yl)piperidine-1-carboxylate]?
**A.** EC50: 8.96 µM; % of reference agonist maximal effect: 47.9%

**Q.** Which results are given for `CCNC(=O)N1CCC[C@@H](c2ccn[nH]2)[C@H]1CO[C@H]1CC[C@@H](C(C)C)CC1` (single isomer, unassigned) [Example 5]?
**A.** EC50: 3.19 µM; % of reference agonist maximal effect: 99.6%
